From US20050065187A1, “Novel antimicrobial aryloxazolidinone compounds” (priority 2003, published 2005)
Values after ≈ are worked out from the molar mass of the structure shown. Read-outs that look alike come from different tables or passages of the source.

Legend:
Experiment in all cases: Antibacterial assay (Test A), microtitration MIC
SPNE 9912 = type: cell-based, S. pneumoniae; conditions: Streptococcus pneumoniae, read-out: SPNE 9912 MIC
Description: (§1) Test A—Antibacterial Assays
(§2) The compounds of the present invention were tested against an assortment of Gram-negative and Gram-positive organisms using standard microtitration techniques (Cohen et. al., Antimicrob., 1985;28:766; Heifetz, et. al., Antimicrob., 1974;6:124).

HINF 30063 = type: cell-based, H. influenza; conditions: Minimum Inhibitory Concentration, strain HINF 30063
Description: as §1, §2

SAUR 9213 = type: cell-based, S. aureus; conditions: Staphylococcus aureus, read-out: SAUR 9213 MIC
Description: as §1, §2

MC 30603 = type: cell-based, M. catarrhalis; conditions: Moraxella catarrhalis, read-out: MC 30603 MIC
Description: as §1, §2

[1] = Minimum Inhibitory Concentration, strain SPNE 9912
[2] = Minimum Inhibitory Concentration, strain SAUR 9213
[3] = Minimum Inhibitory Concentration, strain MC 30603

Row | SMILES | MIC (SPNE 9912; [1]) | MIC (HINF 30063) | MIC (SAUR 9213; [2]) | MIC (MC 30603; [3]) | MIC (SPNE 9912) | MIC (SAUR 9213) | MIC (MC 30603)
1 | CC(=O)NC[C@H]1CN(c2ccc(N3CC/C(=N/O)[C@@H](O)C3)c(F)c2)C(=O)O1 (stereo in doubt) [Example 3, N-{3-[3-Fluoro-4-(3-hydroxy-4-hydroxyimino-piperidin-1-yl)-phenyl]-2-oxo-oxazolidin-5-ylmethyl}-acetamide] | 2 µg/mL (≈ 5.26 µM) | 16 µg/mL (≈ 42.1 µM) | 8 µg/mL (≈ 21 µM) | 16 µg/mL (≈ 42.1 µM) |  |  | 
2 | O=C1O[C@@H](CNC(=S)C(F)F)CN1c1ccc(C2CCC(O)C(F)C2)c(F)c1 (single isomer, unassigned) [Example 28, 2,2-Difluoro-N-{3-[3-fluoro-4-(3-fluoro-4-hydroxy-cyclohexyl)-phenyl]-2-oxo-oxazolidin-5-ylmethyl}-thioacetamide] | 0.5 µg/mL (≈ 1.19 µM) | 32 µg/mL (≈ 76.1 µM) | 1 µg/mL (≈ 2.38 µM) | 2 µg/mL (≈ 4.76 µM) |  |  | 
3 | O=C(NC[C@H]1CN(c2ccc(C3CCC(O)[C@@H](O)C3)c(F)c2)C(=O)O1)C(Cl)Cl (stereo in doubt) [Example 9, 2,2-Dichloro-N-{3-[4-(3,4-dihydroxy-cyclohexyl)-3-fluoro-phenyl]-2-oxo-oxazolidin-5-ylmethyl}-acetamide] | 1 µg/mL (≈ 2.3 µM) | 4 µg/mL (≈ 9.19 µM) | 4 µg/mL (≈ 9.19 µM) | 4 µg/mL (≈ 9.19 µM) |  |  | 
4 | CC(=O)NC[C@H]1CN(c2ccc(N3CC[C@@H](O)[C@@H](O)C3)c(F)c2)C(=O)O1 (stereo in doubt) [Example 1, N-{3-[4-(3,4-Dihydroxy-piperidin-1-yl)-3-fluoro-phenyl]-2-oxo-oxazolidin-5-ylmethyl}-acetamide] |  | 32 µg/mL (≈ 87.1 µM) |  |  | 2 µg/mL (≈ 5.44 µM) | 8 µg/mL (≈ 21.8 µM) | 8 µg/mL (≈ 21.8 µM)
5 | O=C(NC[C@H]1CN(c2ccc(C3CCC(O)[C@@H](O)C3)c(F)c2)C(=O)O1)C(F)F (stereo in doubt) [Example 10, N-{3-[4-(3,4-Dihydroxy-cyclohexyl)-3-fluoro-phenyl]-2-oxo-oxazolidin-5-ylmethyl}-2,2-difluoro-acetamide] | 1 µg/mL (≈ 2.49 µM) | 8 µg/mL (≈ 19.9 µM) | 4 µg/mL (≈ 9.94 µM) | 4 µg/mL (≈ 9.94 µM) |  |  | 
6 | O=C(NC[C@H]1CN(c2ccc(C3CCC(O)[C@@H](O)C3)cc2)C(=O)O1)C(F)F (stereo in doubt) [Example 14, N-{3-[4-(3,4-Dihydroxy-cyclohexyl)-phenyl]-2-oxo-oxazolidin-5-ylmethyl}-2,2-difluoro-acetamide] | 2 µg/mL (≈ 5.2 µM) | 16 µg/mL (≈ 41.6 µM) | 8 µg/mL (≈ 20.8 µM) | 16 µg/mL (≈ 41.6 µM) |  |  | 
7 | NC(=O)[C@H]1CN(c2ccc(C3CCC(=O)CC3)c(F)c2)C(=O)O1 [Example 24, 3-[3-Fluoro-4-(4-oxo-cyclohexyl)-phenyl]-2-oxo-oxazolidine-5-carboxylic acid amide] | 2 µg/mL (≈ 6.24 µM) | 32 µg/mL (≈ 99.9 µM) | 1 µg/mL (≈ 3.12 µM) | 32 µg/mL (≈ 99.9 µM) |  |  | 
8 | CCC(=O)NC[C@H]1CN(c2ccc(C3CCC(O)CC3)c(F)c2)C(=O)O1 (stereo in doubt) [Example 17, N-{3-[3-Fluoro-4-(4-hydroxy-cyclohexyl)-phenyl]-2-oxo-oxazolidin-5-ylmethyl}-propionamide] | 1 µg/mL (≈ 2.74 µM) | 4 µg/mL (≈ 11 µM) | 2 µg/mL (≈ 5.49 µM) | 4 µg/mL (≈ 11 µM) |  |  | 
9 | O=C(NC[C@H]1CN(c2ccc(C3CCC(O)[C@@H](O)C3)cc2)C(=O)O1)C(Cl)Cl (stereo in doubt) [Example 13, 2,2-Dichloro-N-{3-[4-(3,4-dihydroxy-cyclohexyl)-phenyl]-2-oxo-oxazolidin-5-ylmethyl}-acetamide] | 1 µg/mL (≈ 2.4 µM) | 8 µg/mL (≈ 19.2 µM) | 8 µg/mL (≈ 19.2 µM) | 8 µg/mL (≈ 19.2 µM) |  |  | 
10 | CC(=O)NC[C@H]1CN(c2ccc(N3CCC(=O)[C@@H](O)C3)c(F)c2)C(=O)O1 [Example 2, N-{3-[3-Fluoro-4-(3-hydroxy-4-oxo-piperidin-1-yl)-phenyl]-2-oxo-oxazolidin-5-ylmethyl}-acetamide] | 1 µg/mL (≈ 2.74 µM) | 16 µg/mL (≈ 43.8 µM) | 4 µg/mL (≈ 10.9 µM) | 8 µg/mL (≈ 21.9 µM) |  |  | 
11 | O=C(NC[C@H]1CN(c2ccc(C3CCC(O)CC3)c(F)c2)C(=O)O1)C(F)F (stereo in doubt) [Example 18, 2,2-Difluoro-N-{3-[3-fluoro-4-(4-hydroxy-cyclohexyl)-phenyl]-2-oxo-oxazolidin-5-ylmethyl}-acetamide] | 0.5 µg/mL (≈ 1.29 µM) | 8 µg/mL (≈ 20.7 µM) | 2 µg/mL (≈ 5.18 µM) | 4 µg/mL (≈ 10.4 µM) |  |  | 
12 | O=C1O[C@@H](CNC(=S)C(F)F)CN1c1ccc(C2CCC(O)[C@@H](O)C2)cc1 (stereo in doubt) [Example 15, N-{3-[4-(3,4-Dihydroxy-cyclohexyl)-phenyl]-2-oxo-oxazolidin-5-ylmethyl}-2,2-difluoro-thioacetamide] | 1 µg/mL (≈ 2.5 µM) | 16 µg/mL (≈ 40 µM) | 4 µg/mL (≈ 9.99 µM) | 8 µg/mL (≈ 20 µM) |  |  | 
13 | CC(=O)NC[C@H]1CN(c2ccc([C@@H]3CCC(=O)[C@@H](O)C3)c(F)c2)C(=O)O1 (stereo in doubt) [Example 25, N-{3-[3-Fluoro-4-(3-hydroxy-4-oxo-cyclohexyl)-phenyl]-2-oxo-oxazolidin-5-ylmethyl}-acetamide] |  | 16 µg/mL (≈ 43.9 µM) |  |  | 2 µg/mL (≈ 5.49 µM) | 2 µg/mL (≈ 5.49 µM) | 8 µg/mL (≈ 22 µM)
14 | CON=C1CCN(c2ccc(N3CC(CNC(C)=O)OC3=O)cc2F)CC1O (centres unmarked) [Example 4, N-{3-[3-Fluoro-4-(3-hydroxy-4-methoxyimino-piperidin-1-yl)-phenyl]-2-oxo-oxazolidin-5-ylmethyl}-acetamide] | 2 µg/mL (≈ 5.07 µM) | 64 µg/mL (≈ 162 µM) | 8 µg/mL (≈ 20.3 µM) | 32 µg/mL (≈ 81.1 µM) |  |  | 
15 | CC(=O)NC[C@H]1CN(c2ccc(C3CCC(O)CC3)c(F)c2)C(=O)O1 (stereo in doubt) [Example 16, N-{3-[3-Fluoro-4-(4-hydroxy-cyclohexyl)-phenyl]-2-oxo-oxazolidin-5-ylmethyl}-acetamide] | 1 µg/mL (≈ 2.85 µM) | 8 µg/mL (≈ 22.8 µM) | 2 µg/mL (≈ 5.71 µM) | 4 µg/mL (≈ 11.4 µM) |  |  | 
16 | CC(=O)NC[C@H]1CN(c2ccc(C3CCC(=O)CC3)c(F)c2)C(=O)O1 [Example 20, N-{3-[3-Fluoro-4-(4-oxo-cyclohexyl)-phenyl]-2-oxo-oxazolidin-5-ylmethyl}-acetamide] | 0.5 µg/mL (≈ 1.44 µM) | 16 µg/mL (≈ 45.9 µM) | 2 µg/mL (≈ 5.74 µM) | 8 µg/mL (≈ 23 µM) |  |  | 
17 | CON=C1CCC(c2ccc(N3C[C@H](CNC(C)=O)OC3=O)cc2F)CC1 (some centres unmarked) [Example 22, N-{3-[3-Fluoro-4-(4-methoxyimino-cyclohexyl)-phenyl]-2-oxo-oxazolidin-5-ylmethyl}-acetamide] | 1 µg/mL (≈ 2.65 µM) | 32 µg/mL (≈ 84.8 µM) | 2 µg/mL (≈ 5.3 µM) | 1 µg/mL (≈ 2.65 µM) |  |  | 
18 | O=C1CCN(c2ccc(N3C[C@H](Cn4ccnn4)OC3=O)cc2F)C[C@@H]1O [Example 6, 1-[2-Fluoro-4-(2-oxo-5-[1,2,3]triazol-1-ylmethyl-oxazolidin-3-yl)-phenyl]-3-hydroxy-piperidin-4-one] | 1 µg/mL (≈ 2.66 µM) | 64 µg/mL (≈ 171 µM) | 4 µg/mL (≈ 10.7 µM) | 8 µg/mL (≈ 21.3 µM) |  |  | 
19 | O=C1O[C@@H](Cn2ccnn2)CN1c1ccc(N2CC[C@@H](O)[C@@H](O)C2)c(F)c1 (stereo in doubt) [Example 5, 3-[4-(3,4-Dihydroxy-piperidin-1-yl)-3-fluoro-phenyl]-5-[1,2,3]triazol-1-ylmethyl-oxazolidin-2-one] | 1 µg/mL (≈ 2.65 µM) | 32 µg/mL (≈ 84.8 µM) | 4 µg/mL (≈ 10.6 µM) | 16 µg/mL (≈ 42.4 µM) |  |  | 
20 | CCC(=O)NC[C@H]1CN(c2ccc(C3CCC(O)[C@@H](O)C3)c(F)c2)C(=O)O1 (stereo in doubt) [Example 8, N-{3-[4-(3,4-Dihydroxy-cyclohexyl)-3-fluoro-phenyl]-2-oxo-oxazolidin-5-ylmethyl}-propionamide] | 2 µg/mL (≈ 5.26 µM) | 8 µg/mL (≈ 21 µM) | 8 µg/mL (≈ 21 µM) | 8 µg/mL (≈ 21 µM) |  |  | 
